From article PMC9506480, “Synthesis and Evaluation of Antiproliferative Activity, Topoisomerase IIα Inhibition, DNA Binding and Non-Clinical Toxicity of New Acridine–Thiosemicarbazone Derivatives” (Pharmaceuticals, 2022)

Key:
[1] = tested on: HepG2 (human hepatocellular carcinoma); design: method as in Silva et al. (2018) [67]; settings: ref Silva et al. (2018) [67]; cited from earlier work
[2] = tested on: MRC-5 (human lung fibroblast); design: method as in Silva et al. (2018) [67]; settings: ref Silva et al. (2018) [67]; cited from earlier work
[3] = tested on: HCT116 (human colon carcinoma); design: method as in Silva et al. (2018) [67]; settings: ref Silva et al. (2018) [67]; cited from earlier work
[4] = tested on: B16-F10 (murine melanoma); design: method as in Silva et al. (2018) [67]; settings: ref Silva et al. (2018) [67]; cited from earlier work
CT DNA = CT DNA binding by UV–Vis absorption spectroscopy; design: species or system calf; settings: compound 40 µM, CT DNA 0 to 60 µM, Tris-HCl pH 7.4
Protocol: Absorption spectroscopy is a convenient and simple method for probing the binding of small molecules to DNA. The interaction of selected acridine–thiosemicarbazone derivatives with CT DNA was studied in the 220–500 nm region. Binding constants (Kb) were calculated from [DNA]/(Ɛa − Ɛf) versus [DNA], in which Kb is given by the ratio of slope to the intercept. […] For this, the regions chosen were the ones with the highest absorption intensity above 300 nm, due to the lower interference in DNA absorption in this region (ESI, Figures S50 and S53).
The concentration of the calf thymus, Type I, fibers (CT DNA), was determined based on the extinction coefficient of the absorbance at 260 nm (6600 L mol^−1 cm^−1). All compounds were dissolved in methanol (HPLC grade) at a concentration of 1 mmol L^−1 (stock solution). Working solutions were prepared by diluting the stock solution using Tris-HCl buffer (pH 7.4), with concentrations of 40 µmol L^−1. Under the optimized concentration, the compounds were titered with increasing concentrations of CT DNA (5 to 60 µmol L^−1). After shaking the system and incubating at room temperature for 10 min, the measurements were recorded using a JASCO J818 spectropolarimeter in the range of 220 to 500 nm at 298 K. The intrinsic bond constant (Kb) was obtained by adjusting the data according to the equation below:[DNA]/(Ɛa − Ɛf) = [DNA]/(Ɛb − Ɛf) + 1/[Kb (Ɛb − Ɛf)] where Ɛa, Ɛb and Ɛf are the apparent extinction coefficient of the compounds, the extinction coefficient of the compounds found in their […] and the extinction coefficient of the compounds when fully DNA-bound, respectively. The graph of [DNA]/(Ɛa − Ɛf) versus [DNA] was used to obtain the Kb from the ratio between the slope and the intercept, as previously described in the literature. Binding data were obtained using SigmaPlot 10.0 software. The study of possible DNA denaturation using methanol–water solutions was evaluated up to the maximum final concentration of methanol in the assays (6%) (ESI, Figures S50 and S53).

Row | SMILES | IC50 [1] | IC50 [2] | IC50 [3] | IC50 [4] | Hypochromic (%) (CT DNA)
1 | O=c1[nH]cc(F)c(=O)[nH]1 [5-FU, 5-fluorouracil] | 1.3 µM | 57.9 µM | 4.1 µM | 3.5 µM | –
2 | CC[n+]1c(-c2ccccc2)c2cc(N)ccc2c2ccc(N)cc21 [EtBr, ethidium bromide, reference compound] | – | – | – | – | 35.15%
